Experimental findings from patent publication US10138261B2, “Ferrocenyl compounds” (The University of Birmingham, priority 2013, dated 2018) are described below.

By EC50 is commonly meant the concentration needed to bring the measured effect to its halfway point.

Read-outs that look alike come from different tables or passages of the source.

For data set [1], the system named is Herpes simplex virus-1 TK^− KOS ACV^r. In words: microbe, parasite or virus in culture. It is filed as cell-based. To be noted: read-out: EC50 (required to reduce virus-induced cytopathogenicity by 50%) Herpes simplex virus-1 TK^− KOS ACV^r. On the technique in general: Damage to the host cells serves as the signal in cytopathic effect assays.
Data set [2] has as its system Vesicular stomatitis virus. The experiment in a line: microbe, parasite or virus in culture. It is filed as cell-based. Particulars: read-out: EC50 (required to reduce virus-induced cytopathogenicity by 50%) Vesicular stomatitis virus.
Data set [3] has as its system Vaccinia virus. In words: microbe, parasite or virus in culture. It is filed as cell-based. Particulars: read-out: EC50 (required to reduce virus-induced cytopathogenicity by 50%) Vaccinia virus.
Data set [4] relates to oesophageal cancer cell lines OE 19 and OE 33.
Data set [5] relates to Herpes simplex virus-2 (G). In words: microbe, parasite or virus in culture. To be noted: Human alphaherpesvirus 2, HeLa, read-out: EC50 (required to reduce virus-induced cytopathogenicity by 50%) Herpes simplex virus-2 (G).
Data set [6] has as its system Hela cells. In words: minimum cytotoxic concentration in antiviral assay host cells (Table 2).
Data set [7] concerns Herpes simplex virus-1 (KOS). In words: microbe, parasite or virus in culture. To be noted: Human alphaherpesvirus 1, HeLa, read-out: EC50 (required to reduce virus-induced cytopathogenicity by 50%) Herpes simplex virus-1 (KOS).
Data set [8] deals with murine leukemia cells (L1210). In words: proliferation activity assay, L1210 cells. To be noted: read-out: IC50 (50% inhibitory concentration) L1210. It is filed as cell-based.
In data set [9] the test system is non-cancerous human T-lymphocyte cells (CEM). The experiment in a line: proliferation activity assay, CEM cells. It is filed as cell-based. Particulars: read-out: IC50 (50% inhibitory concentration) CEM.
The test system of data set [10] is human cervix carcinoma cells (Hela). In words: proliferation activity assay, HeLa cells. The format is cell-based. Particulars: read-out: IC50 (50% inhibitory concentration) HeLa.
Data set [11] concerns Herpes simplex virus-2 (G). Particulars: read-out: EC50 (required to reduce virus-induced cytopathogenicity by 50%) Herpes simplex virus-2 (G); Hela cells.
Data set [12] has as its system Herpes simplex virus-1 (KOS). To be noted: read-out: EC50 (required to reduce virus-induced cytopathogenicity by 50%) Herpes simplex virus-1 (KOS); Hela cells.
For data set [13], the system named is cells lacking (TK negative) or possessing (TK positive) the phosphorylation enzyme. Particulars: cell death curves, FIG. 3.
[14] abbreviates: Vesicular stomatitis virus, HeLa.
The mark [15] stands for this setting: even at higher concentrations of 25 μM.

In the case of `Nc1nc(O)c2ncn(COC(CO)CO)c2n1` [Ganciclovir], the EC50 was 10 µM in [1] (Human alphaherpesvirus 1, HeLa); more than 100 µM in [2] (setting [14]); more than 100 µM in [3] (Orthopoxvirus vaccinia, HeLa).
For “1-[2-(Adenin-9-yl)ethyl]-ferrocene [Compound 5]”, the “inhibition of cell growth” value in data set [4] (setting [15]) was “ineffective at inhibiting cell growth”.
As for `Nc1ccn(C[C@@H](CO)OCP(=O)(O)O)c(=O)n1` [Cidofovir], the EC50 in data set [5] is 2 µM; in [1] (Human alphaherpesvirus 1, HeLa), 0.9 µM; in [2] (setting [14]), more than 250 µM; in [3] (Orthopoxvirus vaccinia, HeLa), 17 µM; in data set [7], 2 µM. Also, the “Minimum cytotoxic concentration (required to cause a microscopically detectable alteration of normal cell morphology)” value in data set [6] is on record as more than 250 μM.
Regarding `N.N.[Cl][Pt][Cl]` [Cisplatin], the IC50 in data set [8] was 1 µM; in data set [9] it was 0.9 µM; in data set [10], 1.2 µM.
Turning to “(S,Rp)-1-[α-Methyl-(3-(hydroxy)propyl)]-2-[(thyminyl)ethyl]-ferrocene [Compound 1]”, the EC50 in [11] worked out at 2.4 µM; in data set [1] (Hela cells) it was 9.6 µM; in data set [2], 48 µM; in data set [12], 2.4 µM; in data set [3], 21.6 µM. Also, the IC50 in [8] was 0.78 µM; in data set [9] it was 0.9 µM; in data set [10] it was 2.68 µM. The “inhibition of cell growth” value in [4] (6.25 μM, 4-day experiment) was “inhibited cell growth”. Further, the “cell survival, TK negative versus TK positive cells” value in data set [13] is listed as “the cells lacking the phosphorylation enzyme (TK negative) survive more than the cells that possess the phosphorylation enzyme (TK positive)”.
In the case of “1-(Thyminyl-)ethyl-ferrocene [Compound 4]”, the IC50 in [8] worked out at 417 µM; in data set [9] it was 592 µM; in [10] it was 509 µM. The “inhibition of cell growth” value in data set [4] (setting [15]) was “ineffective at inhibiting cell growth”.
As to `O=c1[nH]c(=O)n([C@H]2C[C@H](O)[C@@H](CO)O2)cc1/C=C/Br` [Brivudin], the 50% effective concentration (EC50) in [5] is 183 µM; in data set [1] (Human alphaherpesvirus 1, HeLa), 50 µM; in data set [2] (setting [14]), more than 250 µM; in data set [3] (Orthopoxvirus vaccinia, HeLa), 10 µM; in data set [7], 0.02 µM. For the same compound, the “Minimum cytotoxic concentration (required to cause a microscopically detectable alteration of normal cell morphology)” value in data set [6] was more than 250 μM.
On to “(S,Rp)-1-[α-Methyl-(3-(hydroxy)propyl)]-2-[2-(-adenin-9-yl)ethyl]-ferrocene [Compound 2]”, for which the “inhibition of cell growth” value in data set [4] (6.25 μM, 4-day experiment) is recorded as “inhibited cell growth”.
In the case of `Nc1nc2c(ncn2COCCO)c(=O)[nH]1` [Acyclovir], the EC50 in data set [1] (Human alphaherpesvirus 1, HeLa) is 50 µM; in data set [2] (setting [14]) it was more than 250 µM; in data set [3] (Orthopoxvirus vaccinia, HeLa) it was more than 250 µM.
Consider “1-[α-Methyl-(3-(hydroxy)propyl)]ferrocene [Compound 3]”, for which the results for the IC50 in data set [8], in [9] and in [10] were 12.3 µM, 38.7 µM and 45.2 µM, respectively. The “inhibition of cell growth” value in data set [4] (setting [15]) is “ineffective at inhibiting cell growth”.
